In test [1] the target is T1, RORγt (Homo sapiens, UniProt P51449).
T1 sequence (P51449 1-497 isoform P51449-2): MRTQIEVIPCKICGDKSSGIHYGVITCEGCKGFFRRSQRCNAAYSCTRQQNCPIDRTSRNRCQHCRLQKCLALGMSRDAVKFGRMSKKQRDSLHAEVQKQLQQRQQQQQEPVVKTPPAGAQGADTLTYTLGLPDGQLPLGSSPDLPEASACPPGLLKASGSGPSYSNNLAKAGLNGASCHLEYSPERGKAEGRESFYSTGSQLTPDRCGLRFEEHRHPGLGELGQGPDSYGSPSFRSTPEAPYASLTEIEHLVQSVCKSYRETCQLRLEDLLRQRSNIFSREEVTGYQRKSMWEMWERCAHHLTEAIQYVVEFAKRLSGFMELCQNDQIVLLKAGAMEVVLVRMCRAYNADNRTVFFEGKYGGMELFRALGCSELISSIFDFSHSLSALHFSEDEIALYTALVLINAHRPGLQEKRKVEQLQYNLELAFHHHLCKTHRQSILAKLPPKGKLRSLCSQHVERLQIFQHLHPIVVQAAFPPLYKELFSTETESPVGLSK
Nature of the test: RORγt binding test (TR-FRET, fluorescent-labeled cholesterol). The conditions noted are these: read-out: binding inhibitory rate (%) of fluorescent-labeled cholesterol to RORγt at test compound 1 μM. The procedure:
The binding activity of the test compound to RORγt was measured by a time resolved fluorescence resonance energy transfer method (TR-FRET) utilizing histidine-tagged RORγt, fluorescent-labeled cholesterol (BODIPY-cholesterol, AVIVA), and terbium-labeled anti-histidine tag antibody (Invitrogen). First, a test compound diluted with an assay buffer (20 mM Tris-HCl (pH 7.5), 100 mM NaCl, 1 mM DTT, 0.1% BSA) was added to a 384 well plate by 3 μL. Then, RORγt diluted with an assay buffer to 240 nM was added by 3 μL, after which fluorescent-labeled cholesterol diluted with the assay buffer to 12 μM was added by 3 μL, and the mixture was stood at room temperature for 20 min. Thereafter, a terbium-labeled anti-histidine tag antibody diluted with the assay buffer to 8 nM was added by 3 μL. The mixture was stood at room temperature for 20 min, and fluorescence intensity (excitation wavelength 320 nm, fluorescence wavelength 520 nm, delay time 100 microseconds) was measured by Envision (PerkinElmer).

Test [2] deals with T1, RORγt. Nature of the test: Jurkat reporter test (human IL-17 ROR response element luciferase reporter). The class given is cell-based. The settings on record: Jurkat, read-out: luminescence level inhibitory rate (%) at test compound 3 μM. The procedure: The Jurkat cells used for the reporter test were cultured in a culture medium (RPMI (Invitrogen), 10% FCS (AusGeneX), 100 U/mL penicillin, 100 μg/mL streptomycin). On the day of the test, 4×10^7 cells were recovered by a centrifugal operation (1000 rpm, 5 min.) and suspended in PBS (phosphate buffered saline) (Invitrogen). Thereafter, the cells were recovered again by a centrifugal operation, and suspended in 2 mL of R buffer (NEON transfection kit, Invitrogen). […] Gene transfer was performed by Electroporation apparatus (NEON, Invitrogen) under the conditions of pulse voltage 1350 V, interval 10 milliseconds, number of times 3. The cells after gene transfer were suspended in 40 mL of a reaction medium (RPMI, 10% Lipid reduced FCS (HyClone), 10 mM HEPES (pH 7.5), 100 U/mL penicillin, 100 μg/mL streptomycin, 5 μM lovastatin), and plated in a 96 well plate by 90 μL. A test compound diluted with the reaction medium was added by 10 μL, and the cells were cultured overnight in an incubator. Bright-Glo (Promega) was added by 100 μL, and the mixture was stirred at room temperature for 10 min, and the luminescence level was measured by Envision (PerkinElmer).
On the technique in general: In a reporter assay the amount or activity of a reporter protein is the signal.

For test [3], the target named is T1, RORγt. Nature of the test: Cofactor recruitment test (Alpha Screen, biotinylated SRC-1 peptide). The test is classed as biochemical. The conditions noted are these: read-out: signal value inhibitory rate (%) at test compound 1 μM. The procedure: Cofactor Recruitment Test
Cofactor recruitment test was performed by Alpha Screen (Histidine Detection Kit, PerkinElmer) method. First, a test compound was diluted with an assay buffer (50 mM Tris-HCl (pH 7.5), 50 mM KCl, 1 mM DTT, 0.1% BSA) and added to a 384 well plate by 5 μL. […] The mixture was stood in a dark place for 1 hr, and the signal value was measured by Envision (PerkinElmer).

As for `COc1ccc(C(NC(=O)C2CNC(=O)C2)C(=O)Nc2cc(F)c([Si](C)(C)C)c(F)c2)cc1` (stereo not drawn) [Example 37, N-(2-((3,5-difluoro-4-(trimethylsilyl)phenyl)amino)-1-(4-methoxyphenyl)-2-oxoethyl)-5-oxopyrrolidine-3-carboxamide], the inhibition at 1 µM is 101% in test [1] and 93.6% in test [3]. Besides, the inhibition at 3 µM in test [2] turned out to be 98.5%.
On to `COCc1ccc(C(C(=O)Nc2cc(F)c([Si](C)(C)C)c(F)c2)N(C)C(=O)c2cc(O)no2)cc1` (stereo not drawn) [Example 38, N-(2-((3,5-difluoro-4-(trimethylsilyl)phenyl)amino)-1-(4-(methoxymethyl)phenyl)-2-oxoethyl)-3-hydroxy-N-methyl-1,2-oxazole-5-carboxamide], for which the inhibition at 1 µM was found to be 102% in test [1] and 99.7% in test [3]. Also, the inhibition at 3 µM in test [2] was 100%.
Take `COCc1ccc(C(NC(=O)Cc2cc(O)no2)C(=O)Nc2cc(F)c([Si](C)(C)C)c(F)c2)cc1` (stereo not drawn) [Example 39, N-(3,5-difluoro-4-(trimethylsilyl)phenyl)-2-(((3-hydroxy-1,2-oxazol-5-yl)acetyl)amino)-2-(4-(methoxymethyl)phenyl)acetamide]: the inhibition at 1 µM in test [1] amounted to 103%; in test [3], 99.6%. Further, in test [2], the inhibition at 3 µM came out at 100%.
Take `COCc1ccc(C(NC(=O)Cn2cnccc2=O)C(=O)Nc2cc(F)c([Si](C)(C)C)c(F)c2)cc1` (stereo not drawn) [Example 40, N-(3,5-difluoro-4-(trimethylsilyl)phenyl)-2-(4-(methoxymethyl)phenyl)-2-(((6-oxopyrimidin-1(6H)-yl)acetyl)amino)acetamide]: the inhibition at 1 µM was 101% in test [1] and 98.7% in test [3]. Further, the inhibition at 3 µM in test [2] was found to be 100%.
For the compound `COc1ccc(C(NC(=O)N2CC(O)C2)C(=O)Nc2cc(F)c([Si](C)(C)C)c(F)c2)cc1` (stereo not drawn) [Example 41, N-(2-((3,5-difluoro-4-(trimethylsilyl)phenyl)amino)-1-(4-methoxyphenyl)-2-oxoethyl)-3-hydroxyazetidine-1-carboxamide], the figures for the inhibition at 1 µM in test [1] and in test [3] were 101% and 94.4%, respectively. Further, in test [2], the inhibition at 3 µM is 100%.
On the same counts, the results for `COc1ccc(C(NC(=O)C2CNC(=O)C2)C(=O)Nc2cc(F)c([Si](C)(C)C)cc2F)cc1` (stereo not drawn) [Example 42, N-(2-((2,5-difluoro-4-(trimethylsilyl)phenyl)amino)-1-(4-methoxyphenyl)-2-oxoethyl)-5-oxopyrrolidine-3-carboxamide] are 102%, 88.5% and 99.1%.
Consider `COCc1ccc(C(C(=O)Nc2cc(F)c([Si](C)(C)C)cc2F)N(C)C(=O)c2cc(O)no2)cc1` (stereo not drawn) [Example 43, N-(2-((2,5-difluoro-4-(trimethylsilyl)phenyl)amino)-1-(4-(methoxymethyl)phenyl)-2-oxoethyl)-3-hydroxy-N-methyl-1,2-oxazole-5-carboxamide], for which the inhibition at 1 µM in test [1] turned out to be 102%; in test [3], 96.1%. The inhibition at 3 µM in test [2] amounted to 100%.
In the case of `COCc1ccc(C(NC(=O)Cc2nnc(C)o2)C(=O)Nc2cc(F)c([Si](C)(C)C)cc2F)cc1` (stereo not drawn) [Example 44, N-(2,5-difluoro-4-(trimethylsilyl)phenyl)-2-(4-(methoxymethyl)phenyl)-2-(((5-methyl-1,3,4-oxadiazol-2-yl)acetyl)amino)acetamide], the inhibition at 1 µM in test [1] amounted to 102%; in test [3], 95.7%. In addition, the inhibition at 3 µM in test [2] turned out to be 102%.
Turning to `COCc1ccc(C(NC(=O)Cn2cnccc2=O)C(=O)Nc2cc(F)c([Si](C)(C)C)cc2F)cc1` (stereo not drawn) [Example 45, N-(2,5-difluoro-4-(trimethylsilyl)phenyl)-2-(4-(methoxymethyl)phenyl)-2-(((6-oxopyrimidin-1(6H)-yl)acetyl)amino)acetamide], the inhibition at 1 µM in test [1] was found to be 102%; in test [3] it was 94.1%. Besides, in test [2], the inhibition at 3 µM worked out at 101%.
As for `COc1ccc(C(NC(=O)Cn2ncc3ccccc32)C(=O)Nc2cc(F)c([Si](C)(C)C)cc2F)cc1` (stereo not drawn) [Example 46, N-(2,5-difluoro-4-(trimethylsilyl)phenyl)-2-((1H-indazol-1-ylacetyl)amino)-2-(4-methoxyphenyl)acetamide], the inhibition at 1 µM in test [1] stood at 99.5%; in test [3], 87.2%. The inhibition at 3 µM in test [2] was found to be 101%.
On the same counts, the results for `COCc1ccc(C(NC(=O)Cn2ncc3ccccc32)C(=O)Nc2cc(F)c([Si](C)(C)C)cc2F)cc1` (stereo not drawn) [Example 47, N-(2,5-difluoro-4-(trimethylsilyl)phenyl)-2-((1H-indazol-1-ylacetyl)amino)-2-(4-(methoxymethyl)phenyl)acetamide] are 100%, 92.4% and 100%.
Consider `COc1ccc(C(C(=O)Nc2ccc([Si](C)(C)C)c(Cl)c2)N(C)C(=O)c2cc(O)no2)cc1` (stereo not drawn) [Example 48, N-(2-((3-chloro-4-(trimethylsilyl)phenyl)amino)-1-(4-methoxyphenyl)-2-oxoethyl)-3-hydroxy-N-methyl-1,2-oxazole-5-carboxamide], for which the inhibition at 1 µM is 103% in test [1] and 73% in test [3]. In addition, the inhibition at 3 µM in test [2] was 95.7%.
For `COCc1ccc([C@@H](NC(=O)[C@@H]2CNC(=O)C2)C(=O)Nc2ccc([Si](C)(C)C)c(F)c2)cc1` [Example 49, (3S)—N-((1R)-2-((3-fluoro-4-(trimethylsilyl)phenyl)amino)-1-(4-(methoxymethyl)phenyl)-2-oxoethyl)-5-oxopyrrolidine-3-carboxamide] the same measures were 101%, 96.9% and 98.4%.
Turning to `COc1ccc([C@@H](NC(=O)[C@@H]2CNC(=O)C2)C(=O)Nc2ccc([Si](C)(C)C)c(F)c2)cc1` [Example 50, (3S)—N-((1R)-2-((3-fluoro-4-(trimethylsilyl)phenyl)amino)-1-(4-methoxyphenyl)-2-oxoethyl)-5-oxopyrrolidine-3-carboxamide], the inhibition at 1 µM in test [1] amounted to 102%; in test [3], 91.5%. Moreover, the inhibition at 3 µM in test [2] came out at 98%.
Take `COCc1ccc([C@@H](NC(=O)[C@@H]2CNC(=O)C2)C(=O)Nc2cc(F)c([Si](C)(C)C)cc2F)cc1` [Example 51, (3S)—N-((1R)-2-((2,5-difluoro-4-(trimethylsilyl)phenyl)amino)-1-(4-(methoxymethyl)phenyl)-2-oxoethyl)-5-oxopyrrolidine-3-carboxamide]: the inhibition at 1 µM in test [1] was 102%; in test [3], 97.3%. Also, the inhibition at 3 µM in test [2] amounted to 98%.
For `COCc1ccc([C@@H](NC(=O)[C@@H]2CNC(=O)C2)C(=O)Nc2cc(F)c([Si](C)(C)C)c(F)c2)cc1` [Example 52, (3S)—N-((1R)-2-((3,5-difluoro-4-(trimethylsilyl)phenyl)amino)-1-(4-(methoxymethyl)phenyl)-2-oxoethyl)-5-oxopyrrolidine-3-carboxamide], the inhibition at 1 µM in test [1] amounted to 102%; in test [3], 98.7%. Further, in test [2], the inhibition at 3 µM worked out at 100%.

For the origin of these results see patent US11851449B2, “Heterocyclic amide compounds having an RORvt inhibitory action” (TAKEDA PHARMACEUTICAL COMPANY LIMITED, priority 2013, dated 2023).
